Measurements from US20260209272A1 (priority 2022, published 2026).
Ends that are not written are not given here.

What was measured:
detached potato leaves = detached potato leaves treated with peptide plus water, no inoculum; 9 = clean leaves
Phytophthora infestans [1] = type: in vivo
Phytophthora infestans [2] = type: in vivo; remark: listed apart in the source
[3] = tested on: Phytophthora infestans zoospores

Substance	score (1-9 scale), negative control without Phytophthora infestans inoculation (detached potato leaves)	protection against infection (in words), experiment repeated one week later (Phytophthora infestans [1]; 400 uM, detached potato leaves)	average score (1-9 scale of late blight infection) (Phytophthora infestans [1]; 6 days after Phytophthora infection, 50 sporangia/ul final, 4 drops of 10 ul per leaflet, 20 C, peptides 400 uM final, Mancozeb product diluted 1:1000, 9 = no symptoms, water positive control 6.56)	late blight lesions, peptide expressed in E. coli (Phytophthora infestans [1]; detached leaf assay, Peptide V1 expressed in E. coli)	protection (in words), further repeat, first time (Phytophthora infestans [1]; detached potato leaves)	protection (in words), further repeat, second time (Phytophthora infestans [1]; detached potato leaves)	overall conclusion on efficacy (Phytophthora infestans [1]; over all detached leaf experiments)	protection among concentrations tested with and without LI-700 (Phytophthora infestans [2]; large plants, 400 μM peptide)	severity of symptoms compared with non-treated control group, combination (Phytophthora infestans [2]; plant assays, low dose Peptide V1 (25 μM) combined with low dose of Mancozeb)	severity of symptoms compared with non-treated control group (Phytophthora infestans [2]; plant assays, low dose alone (Peptide V1 25 μM; low dose of Mancozeb))	disease reduction (Phytophthora infestans [2]; whole plant assays, 400 μM peptide concentration)	activity in the presence of other agrochemical active ingredients ([3]; FIG. 9 legend)	zoospore germination, peptide expressed in E. coli ([3]; Peptide V1 expressed in E. coli)	additive or synergistic effects with chemical fungicides ([3]; Peptide V1 with either Mancozeb or Fungonil (Chlorothalonil), germination assays)
RNTAQIP [Peptide V2, RNTAQIP]	8.67													
RITAQIRL [Peptide V1]		almost as good at reducing infection	8.37	it allowed the development of minor late blight lesions, it is noteworthy that these lesions did not progress	some protection	excellent protection	consistently works well	best protection	approximately the same	approximately the same	approximately 60%	retains its activity	completely inhibited zoospore germination	did not indicate any evidence of additive or synergistic effects
